Patent US20220016115A1, “USP19 INHIBITORS FOR USE IN THERAPY” (ALMAC DISCOVERY LIMITED, priority 2018, published 2022)

Biological target: T1, USP19 (Homo sapiens, UniProt O94966)
T1 sequence (O94966 1-1318): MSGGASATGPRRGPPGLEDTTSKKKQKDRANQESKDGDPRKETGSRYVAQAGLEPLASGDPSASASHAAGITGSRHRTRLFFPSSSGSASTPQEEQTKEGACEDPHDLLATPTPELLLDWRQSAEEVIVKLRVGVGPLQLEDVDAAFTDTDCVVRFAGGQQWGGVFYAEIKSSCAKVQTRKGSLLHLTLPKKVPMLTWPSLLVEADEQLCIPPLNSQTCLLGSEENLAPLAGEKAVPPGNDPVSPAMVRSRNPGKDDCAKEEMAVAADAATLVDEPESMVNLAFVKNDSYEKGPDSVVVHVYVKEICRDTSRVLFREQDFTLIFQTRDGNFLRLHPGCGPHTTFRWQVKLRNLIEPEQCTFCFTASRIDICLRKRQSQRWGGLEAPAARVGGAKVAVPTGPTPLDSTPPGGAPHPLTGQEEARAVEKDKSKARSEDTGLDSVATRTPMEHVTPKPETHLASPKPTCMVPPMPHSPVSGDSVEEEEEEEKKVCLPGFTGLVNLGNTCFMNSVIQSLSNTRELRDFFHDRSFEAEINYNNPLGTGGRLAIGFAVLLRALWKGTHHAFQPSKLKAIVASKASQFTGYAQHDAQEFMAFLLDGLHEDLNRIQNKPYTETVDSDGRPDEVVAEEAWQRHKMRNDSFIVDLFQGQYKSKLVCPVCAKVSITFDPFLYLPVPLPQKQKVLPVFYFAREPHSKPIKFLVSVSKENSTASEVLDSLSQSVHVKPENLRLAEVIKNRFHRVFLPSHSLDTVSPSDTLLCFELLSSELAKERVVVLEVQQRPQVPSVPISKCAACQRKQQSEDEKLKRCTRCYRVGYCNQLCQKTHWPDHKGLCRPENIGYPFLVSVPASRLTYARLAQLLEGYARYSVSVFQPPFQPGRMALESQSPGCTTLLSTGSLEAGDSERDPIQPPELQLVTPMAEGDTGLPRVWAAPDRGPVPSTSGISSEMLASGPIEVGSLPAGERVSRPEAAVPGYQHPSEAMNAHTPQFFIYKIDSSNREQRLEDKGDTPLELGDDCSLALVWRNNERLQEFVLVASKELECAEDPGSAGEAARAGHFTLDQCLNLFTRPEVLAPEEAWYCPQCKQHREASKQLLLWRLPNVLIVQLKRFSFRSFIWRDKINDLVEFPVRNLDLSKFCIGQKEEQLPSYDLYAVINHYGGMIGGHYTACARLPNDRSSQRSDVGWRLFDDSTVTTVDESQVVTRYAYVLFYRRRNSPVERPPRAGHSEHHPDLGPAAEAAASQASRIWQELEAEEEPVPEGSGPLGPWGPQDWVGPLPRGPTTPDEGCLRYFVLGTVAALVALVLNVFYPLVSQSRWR
Assay: USP19 fluorescence polarisation (FP) homogeneous assay
Assay type: biochemical
Parameters: Full-length USP19 was purchased from Boston Biochem (E-576); purchased Boston Biochem E-576
Details: Ubiquitin-Lys-TAMRA substrate, full-length USP19 2.5 nM, average of at least two duplicate experiments
Procedure: Unless otherwise stated, all other reagents were purchased from Sigma. Enzymatic reactions were conducted in black flat bottom polystyrene 384-well plates (Nunc) and 30 μL total volume. […] Inhibitors were stored as 10 mM DMSO stocks in an inert environment (low humidity, dark, low oxygen, room temperature) using the Storage Pod System and serial dilutions were prepared in buffer just prior to the assay (from 200 μM to 2 μM, 8-18 data point curve). Following incubation at RT for 30 min, the enzymatic reactions were initiated by dispensing the Ub substrate (500 nM, 10 μL). FP was measured every 15 min over a period of 90 min (within the linear range of the assay) using a Synergy 4 plate reader (BioTek) exciting at 530 nm and measuring the amount of parallel and perpendicular light at 575 nm. The FP signal was subsequently normalised to the no compound control.

| IC50 [nM] | Structure (SMILES) |
| --- | --- |
| < 500 | C[C@H](CC1CCCCC1)C(=O)N1CCC(O)(Cn2cnc(-c3ccc(CO)cc3)cc2=O)C(C)(C)C1 (stereo partly drawn) [Example 139, 3-((1-((R)-3-Cyclohexyl-2-methylpropanoyl)-4-hydroxy-3,3-dimethylpiperidin-4-yl)methyl)-6-(4-(hydroxymethyl)phenyl)pyrimidin-4(3H)-one] |
| < 500 | C[C@H](CC1CCCCC1)C(=O)N1CCC(O)(Cn2cnc(-c3ccccc3CN)cc2=O)C(C)(C)C1 (some centres unmarked) [Example 141] |
| < 500 | C[C@H](CC1CCCCC1)C(=O)N1CCC(O)(Cn2cc(C(=O)N(C)C)c(Cl)cc2=O)C2(CCCC2)C1 (stereo partly drawn) [Example 144, 4-Chloro-1-((7-((R)-3-cyclohexyl-2-methylpropanoyl)-10-hydroxy-7-azaspiro[4.5]decan-10-yl)methyl)-N,N-dimethyl-6-oxo-1,6-dihydropyridine-3-carboxamide] |
| < 500 | C[C@H](CC1CCCCC1)C(=O)N1CCC(O)(Cn2cc(C(=O)N(C)C)c(N(C)C)cc2=O)C2(CCCC2)C1 (stereo partly drawn) [Example 145, 1-((7-((R)-3-Cyclohexyl-2-methylpropanoyl)-10-hydroxy-7-azaspiro[4.5]decan-10-yl)methyl)-4-(dimethylamino)-N,N-dimethyl-6-oxo-1,6-dihydropyridine-3-carboxamide] |
| < 500 | C[C@H](CC1CC1)C(=O)N1CCC(O)(Cn2cc(C(=O)N(C)C)c(-c3ccccc3)cc2=O)C2(CCCC2)C1 (stereo partly drawn) [Example 149, 1-((7-((R)-3-Cyclopropyl-2-methylpropanoyl)-10-hydroxy-7-azaspiro[4.5]decan-10-yl)methyl)-N,N-dimethyl-6-oxo-4-phenyl-1,6-dihydropyridine-3-carboxamide] |
| < 500 | CN(C)C(=O)c1cn(C[C@]2(O)CCN(C(=O)[C@H](CO)CC3CCCCC3)CC2(C)C)c(=O)cc1-c1ccccc1 [Example 152, 1-(((S)-1-((S)-3-Cyclohexyl-2-(hydroxymethyl)propanoyl)-4-hydroxy-3,3-dimethylpiperidin-4-yl)methyl)-N,N-dimethyl-6-oxo-4-phenyl-1,6-dihydropyridine-3-carboxamide] |
| 5000 to 50000 | CN(C)C(=O)c1cn(C[C@@]2(O)CCN(C(=O)[C@H](CO)CC3CCCCC3)CC2(C)C)c(=O)cc1-c1ccccc1 [Example 153, 1-(((R)-1-((S)-3-Cyclohexyl-2-(hydroxymethyl)propanoyl)-4-hydroxy-3,3-dimethylpiperidin-4-yl)methyl)-N,N-dimethyl-6-oxo-4-phenyl-1,6-dihydropyridine-3-carboxamide] |
| < 500 | C[C@H](CC1CCCCC1)C(=O)N1CCC(O)(Cn2cc(C(=O)N(C)C)c(-c3ccsc3)cc2=O)C2(CCCC2)C1 (stereo partly drawn) [Example 155, 1-((7-((R)-3-Cyclohexyl-2-methylpropanoyl)-10-hydroxy-7-azaspiro[4.5]decan-10-yl)methyl)-N,N-dimethyl-6-oxo-4-(thiophen-3-yl)-1,6-dihydropyridine-3-carboxamide] |
| < 500 | C[C@H](CC1CCCCC1)C(=O)N1CCC(O)(Cn2cc(C(=O)N(C)C)c(-c3cccc(CO)c3)cc2=O)C2(CCCC2)C1 (stereo partly drawn) [Example 156, 1-((7-((R)-3-Cyclohexyl-2-methylpropanoyl)-10-hydroxy-7-azaspiro[4.5]decan-10-yl)methyl)-4-(3-(hydroxymethyl)phenyl)-N,N-dimethyl-6-oxo-1,6-dihydropyridine-3-carboxamide] |
| < 500 | CN(C)C(=O)c1cn(CC2(O)CCN(C(=O)C(O)CC3CCCCC3)CC23CCCC3)c(=O)cc1-c1ccccc1 (centres unmarked) [Example 157, 1-((7-(3-Cyclohexyl-2-hydroxypropanoyl)-10-hydroxy-7-azaspiro[4.5]decan-10-yl)methyl)-N,N-dimethyl-6-oxo-4-phenyl-1,6-dihydropyridine-3-carboxamide] |
| < 500 | COC[C@H](CC1CCCCC1)C(=O)N1CC[C@@](O)(Cn2cc(C(=O)N(C)C)c(-c3ccccc3)cc2=O)C(C)(C)C1 [Example 160, 1-(((S)-1-((S)-3-Cyclohexyl-2-(methoxymethyl)propanoyl)-4-hydroxy-3,3-dimethylpiperidin-4-yl)methyl)-N,N-dimethyl-6-oxo-4-phenyl-1,6-dihydropyridine-3-carboxamide] |
| < 500 | C[C@H](CC1CCCCC1)C(=O)N1CCC(O)(Cn2cc(C(=O)N(C)C)c(-c3ccc(CO)cc3)cc2=O)C2(CCCC2)C1 (stereo partly drawn) [Example 162, 1-((7-((R)-3-Cyclohexyl-2-methylpropanoyl)-10-hydroxy-7-azaspiro[4.5]decan-10-yl)methyl)-4-(4-(hydroxymethyl)phenyl)-N,N-dimethyl-6-oxo-1,6-dihydropyridine-3-carboxamide] |
| < 500 | CN(C)C(=O)c1cn(C[C@]2(O)CCN(C(=O)[C@H](CCO)CC3CCCCC3)CC2(C)C)c(=O)cc1-c1ccccc1 [Example 164, 1-(((S)-1-((S)-2-(Cyclohexylmethyl)-4-hydroxybutanoyl)-4-hydroxy-3,3-dimethylpiperidin-4-yl)methyl)-N,N-dimethyl-6-oxo-4-phenyl-1,6-dihydropyridine-3-carboxamide] |
| < 500 | CN(C)C(=O)c1cn(C[C@]2(O)CCN(C(=O)[C@H](CO)CC3CCC3)CC2(C)C)c(=O)cc1-c1ccccc1 [Example 166, 1-(((S)-1-((S)-3-Cyclobutyl-2-(hydroxymethyl)propanoyl)-4-hydroxy-3,3-dimethylpiperidin-4-yl)methyl)-N,N-dimethyl-6-oxo-4-phenyl-1,6-dihydropyridine-3-carboxamide] |
| 5000 to 50000 | CN(C)C(=O)c1cn(C[C@@]2(O)CCN(C(=O)[C@H](CO)CC3CCC3)CC2(C)C)c(=O)cc1-c1ccccc1 [Example 167, 1-(((R)-1-((S)-3-Cyclobutyl-2-(hydroxymethyl)propanoyl)-4-hydroxy-3,3-dimethylpiperidin-4-yl)methyl)-N,N-dimethyl-6-oxo-4-phenyl-1,6-dihydropyridine-3-carboxamide] |
| < 500 | C[C@H](CC1CCCCC1)C(=O)N1CCC(O)(Cn2cc(C(=O)N3CCOCC3)c(-c3ccccc3)cc2=O)C(C)(C)C1 (some centres unmarked) [Example 168] |
| < 500 | CC(=O)N1CCN(C(=O)c2cn(CC3(O)CCN(C(=O)[C@H](C)CC4CCCCC4)CC3(C)C)c(=O)cc2-c2ccccc2)CC1 (some centres unmarked) [Example 169] |
| < 500 | C[C@H](CC1CCCCC1)C(=O)N1CCC(O)(Cn2cc(C(=O)N3CCN(C)CC3)c(-c3ccccc3)cc2=O)C(C)(C)C1 (stereo partly drawn) [Example 170, 1-((1-((R)-3-Cyclohexyl-2-methylpropanoyl)-4-hydroxy-3,3-dimethylpiperidin-4-yl)methyl)-5-(4-methylpiperazine-1-carbonyl)-4-phenylpyridin-2(1H)-one] |
| < 500 | CN(C)C(=O)c1cn(CC2(O)CCN(C(=O)[C@@H]3C[C@@H]3c3ccccc3)CC23CCCC3)c(=O)cc1-c1ccccc1 (stereo partly drawn) [Example 174, 1-((10-Hydroxy-7-((1R,2S)-2-phenylcyclopropane-1-carbonyl)-7-azaspiro[4.5]decan-10-yl)methyl)-N,N-dimethyl-6-oxo-4-phenyl-1,6-dihydropyridine-3-carboxamide] |
| < 500 | CC(C)CC(C)C(=O)N1CCC(O)(Cn2cc(C(=O)N(C)C)c(-c3ccccc3)cc2=O)C2(CCCC2)C1 (centres unmarked) [Example 197, 1-((7-(2,4-Dimethylpentanoyl)-10-hydroxy-7-azaspiro[4.5]decan-10-yl)methyl)-N,N-dimethyl-6-oxo-4-phenyl-1,6-dihydropyridine-3-carboxamide] |
